{"source": "paper PMC4794652", "about": "“Identification of E-cadherin signature motifs functioning as cleavage sites for Helicobacter pylori HtrA” (Scientific Reports, 2016)", "key": {"[1]": {"tested_on": "HtrA wild-type (H. pylori)", "assay": "Direct peptide binding to immobilised HtrA by surface plasmon resonance (SPR)", "details": "for direct binding to immobilised HtrA (SPR response) / concentration-dependent SPR binding to HtrA, C-terminal carboxyl vs amide: SPR-2, 25 °C, 25 μl/min; for direct binding to immobilised HtrA (SPR response): HBS-P (10 mM HEPES-buffered saline, 150 mM NaCl, 0.005% Tween), against significance threshold, in words (Fig. 4C); for concentration-dependent SPR binding to HtrA, C-terminal carboxyl vs amide: HBS-P, in words (Fig. 4D, S3B, S3C)", "procedure": "Affinity studies were performed on a Sierra Sensors GmbH SPR-2 instrument. Measurements were performed at 25 °C with a flow rate of 25 μl/min. Carboxymethyl dextran matrix high-density sensor chips (SPR-2 Affinity Sensor HC, batch 10-BC-04-154-A, Sierra Sensors) were used to immobilise 20 μg/ml HtrA wild-type (wt) in 10 mM HEPES (HEPES buffer 1 M solution, pH 7.3, Fisher Scientific) by adding 198 μl amine coupling with an activation solution (200 mM N-ethyl-3-(3-dimethylaminopropyl)-carbodiimide [EDC] and 50 mM N-hydroxysuccinimide [NHS]). The SPR sensor surface was loaded with 100 μl protein and subsequently treated by injecting 192 μl of 1 M ethanolamine at pH 8.5 for inactivation of excess coupling groups. HBS-P (10 mM HEPES-buffered saline, 150 mM NaCl, 0.005% Tween) served as running and sample buffer for peptide measurements. Peptide samples were directly dissolved in HBS-P buffer. The experiments with the non-peptidic compounds were performed utilising HBS-PD running buffer (10 mM HEPES-buffered saline with 3% DMSO, 150 mM NaCl, 0.005% Tween)."}, "H. pylori HtrA [2]": {"tested_on": "H. pylori HtrA", "assay": "In vitro HtrA-mediated E-cadherin (rCdh1) cleavage, inhibition by peptides (Western blot)", "type": "biochemical", "procedure": "(§1) Proteins were separated by SDS PAGE and analysed by Western blot using specific antibodies against HtrA[21], the extracellular domains EC5 (H108, Santa Cruz Biotechnology and ab40772, Abcam), EC1 (SHE78-7, Invitrogen) and EC2 (HecD1, Calbiochem) of E-cadherin, or the intracellular domain (24E10, Cell Signaling). His6-tagged proteins were analysed using an anti-His5-antibody (Qiagen). GAPDH (Cell Signaling) and β-actin (Sigma) were detected as loading controls. Where indicated, signals of protein bands were quantified using the ImageLab software (BioRad). Graphical presentation and statistical evaluations (Student’s t-test) were performed with GraphPad Prism 5 and p-values of ***p ≤ 0.001, **p ≤ 0.01 and *p ≤ 0.05 were considered statistically significant.\nPurification of recombinant H. pylori HtrA and in vitro cleavage assays have been described elsewhere. Briefly, 200 ng recombinant HtrA was incubated with 50 ng recombinant hCdh1 (R&D Systems) in 50 mM HEPES pH 7.4 and 100 μM EDTA for 16 h (or for the indicated time periods) at 37 °C. Where indicated, test peptides were added."}, "H. pylori HtrA [3]": {"tested_on": "H. pylori HtrA", "assay": "Competition experiment: interference with P1-mediated HtrA inhibition (rCdh1 cleavage, Western blot)", "type": "biochemical", "details": "100 μM peptides, 50 ng rCdh1, 200 ng rHtrA, 16 h, 37 °C, in words (Fig. S4B)", "procedure": "as §1\nPurification of recombinant H. pylori HtrA and in vitro cleavage assays have been described elsewhere. […]\nFigure S4. […] (A) Synthesized peptides based on the most frequent detected peptide during label-free mass spectrometry-based proteomic analysis. […] The cleavage fragments were analyzed by Western blot and detected using an antibody against the EC5. (D) Quantitative analysis of the relative amount of β-actin in whole cell lysates (WCL) of the H. pylor i-infected cells by blot densitometry from […]\n1 Niessen, C. M. & Gumbiner, B. M. Cadherin-mediated cell sorting not determined by binding or […]"}, "[4]": {"tested_on": "HtrA in H. pylori-infected AGS cells", "assay": "Inhibition of HtrA in H. pylori-infected AGS cells transfected with hCdh1 (formation of 90 kDa hCdh1 NTF fragment)", "type": "cell-based, H. pylori; human (AGS cells)", "details": "transfected AGS cells expressing hCdh1, H. pylori infection 16 h, 50 μl supernatant; blot densitometry, three independent experiments; in words (Fig. 5B)", "procedure": "Figure 5 Inhibition of HtrA-mediated E-cadherin cleavage. (A) 50 ng rCdh1 was incubated with 200 ng HtrA and indicated concentrations of P1. rCdh1 fragments and HtrA were detected using specific antibodies. (B) Transfected AGS cells expressing hCdh1 were infected with H. pylori (Hp) or left untreated (–) for 16 h. 50 μl aliquots of the supernatants were separated by SDS PAGE and blotted onto membranes. The 90 kDa hCdh1^NTF fragment was detected by Western blots. The relative amount of hCdh1^NTF fragment was quantified by blot densitometry from three independent experiments. […] (C) Polarised MKN-28 cells grown on transwell filters were infected with H. pylori in the presence and absence of peptide P1 at different concentrations (100 μM, 200 μM, 500 μM). Bacteria that had transmigrated across the MKN-28 monolayer on the filter were counted (n = 3, mean ± std dev).\nThe human gastric adenocarcinoma cell line AGS is E-cadherin-negative and was derived from an adenocarcinoma of the stomach of a person (ECACC, 89090402). […] Adherence of H. pylori was quantitated in a cfu (colony-forming unit) assay. […] The number of cfu was determined by growth on agar plates for 72 h. […] The number of transmigrated bacteria was determined as cfu by taking aliquots from the basal chambers. […]"}, "[5]": {"tested_on": "H. pylori transmigration across MKN-28 cells", "assay": "Transmigration of H. pylori across polarised MKN-28 cell monolayer (transwell filter assay)", "type": "cell-based, H. pylori; human (MKN-28 cells)", "details": "100 μM, 200 μM, 500 μM P1; MOI 50; cfu from basal chamber; n = 3, mean ± std dev; in words (Fig. 5C)", "source_text": "(§2) The human gastric adenocarcinoma cell line AGS is E-cadherin-negative and was derived from an adenocarcinoma of the stomach of a person (ECACC, 89090402). AGS cells expressing hCdh1 were generated by transfection using a plasmid containing E-cadherin wild-type cDNA[50] which has been kindly provided by Rohan D. Teasdale (University of Queensland, Australia). E-cadherin-positive MKN-28 cells (JCRB, 0253, obtained from the Max-Planck Institute for Infection Biology) were originally described as being isolated from a moderately differentiated tubular adenocarcinoma and have been frequently used to study E-cadherin-dependent processes. The gastric epithelial NCI-N87 cells (ATCC, CRL-5822) were included as an additional E-cadherin-expressing cell line[24] and were derived from metastasis in the liver. All cells have been described previously[24][51] and were grown in RPMI 1640 medium containing 4 mM glutamine (Invitrogen) and 10% FCS (Sigma) in a humidified atmosphere at 37 °C. […] Adherence of H. pylori was quantitated in a cfu (colony-forming unit) assay. […] The number of cfu was determined by growth on agar plates for 72 h. […] The number of transmigrated bacteria was determined as cfu by taking aliquots from the basal chambers. […]"}, "[6]": {"tested_on": "HtrA in H. pylori infections of several other cell lines", "assay": "Inhibition of hCdh1 NTF formation in H. pylori infections of several other cell lines", "type": "cell-based", "details": "different infection doses, data not shown, in words", "source_text": "as §2"}}, "note": "“Also recorded” adds a separate entry of the source. No end group written: not given here.", "data": [{"substance": "NDNAPIPEPR [Peptide P5]", "values": [{"measurement": "direct binding to immobilised HtrA (SPR response)", "setting": "[1]", "value": "positive binding response above the significance threshold"}]}, {"substance": "P1-NH2: P1 with a C-terminal alpha-amide (TGTLLLILSDVNDNAPIPEPR-NH2) [Peptide P1-NH2]", "values": [{"measurement": "concentration-dependent SPR binding to HtrA, C-terminal carboxyl vs amide", "setting": "[1]", "value": "concentration-dependent binding"}]}, {"substance": "TGTLLLI [Peptide P1_NT, short peptide P1_NT, contains the hydrophobic amino acid stretch TGTLLLI]", "values": [{"measurement": "blocking of HtrA-induced E-cadherin cleavage, 7-residue N-terminal peptides", "setting": "H. pylori HtrA [2]; 100 μM peptide, 50 ng rCdh1, 200 ng rHtrA, 16 h, 37 °C, in words (Fig. S4B)", "value": "None of these peptides blocked HtrA-induced E-cadherin cleavage"}, {"measurement": "interference with P1-mediated HtrA inhibition", "setting": "H. pylori HtrA [3]", "value": "None of these peptides blocked HtrA-induced E-cadherin cleavage or interfered with P1-mediated HtrA inhibition"}]}, {"substance": "TGTLLLILSDVNDNAPIPEPR [Peptide P1]", "values": [{"measurement": "inhibition of in vitro HtrA-mediated E-cadherin cleavage", "setting": "H. pylori HtrA [2]; 100 μM peptide, 200 ng HtrA, 50 ng rCdh1, 50 mM HEPES pH 7.4, 100 μM EDTA, 16 h, 37 °C, Western blot, in words (Fig. 4A,B)", "value": "effectively inhibited in vitro HtrA-mediated E-cadherin cleavage; also recorded: efficiently inhibited HtrA-mediated E-cadherin cleavage"}, {"measurement": "inhibition of HtrA-mediated rCdh1 cleavage, concentration dependence", "setting": "H. pylori HtrA [2]; indicated concentrations of P1, 50 ng rCdh1, 200 ng HtrA, Western blot, in words (Fig. 5A)", "value": "strongly inhibited HtrA-mediated rCdh1 cleavage in a concentration-dependent manner"}, {"measurement": "inhibition of HtrA-mediated E-cadherin cleavage in vitro (summary)", "setting": "H. pylori HtrA [2]; summary statement without concentration, in words", "value": "efficiently blocked E-cadherin cleavage in vitro"}, {"measurement": "direct binding to immobilised HtrA (SPR response)", "setting": "[1]", "value": "strong binding"}, {"measurement": "concentration-dependent SPR binding to HtrA, C-terminal carboxyl vs amide", "setting": "[1]; listed as P1-OH", "value": "concentration-dependent binding; also recorded: stronger SPR signals; also recorded: greater SPR response than its amide counterpart"}, {"measurement": "binding specificity for HtrA", "setting": "[1]; in words", "value": "binds with high specificity"}, {"measurement": "formation of hCdh1 NTF fragment (bioactivity in H. pylori-infected AGS cells)", "setting": "[4]", "value": "significant dose-dependent decrease in the formation of the hCdh1^NTF; also recorded: weaker, but still significant at higher concentrations"}, {"measurement": "H. pylori transmigration across polarised MKN-28 monolayer", "setting": "[5]", "value": "strong concentration-dependent reduction of H. pylori transmigration; also recorded: inhibition of H. pylori transmigration"}, {"measurement": "decrease in formation of hCdh1 NTF in other cell lines and infection doses", "setting": "[6]", "value": "This effect was also observed in H. pylori infections of several other cell lines and at different infection doses"}]}]}
